The target in assay [1] is EZH2 Y641F mutant (PRC2 enzyme) (Homo sapiens (Human), UniProt Q15910, Y641F). The assay can be described thus: PRC2 enzyme assay on peptide substrate, EZH2 Y641F mutant (H3K27me2 peptide, 3H-SAM Flashplate). It counts as biochemical. The note with it: Y641F mutant PRC2 4 nM.
Protocol: (§1) Human PRC2 enzymes were purified as 4-component enzyme complexes co-expressed in Spodoptera frugiperda (sf9) cells using a baculovirus expression system. […] The EED subunit contained an N-terminal FLAG tag that was used to purify the entire 4-component complex from sf9 cell lysates.
(§2) The assays were all performed in a buffer consisting of 20 mM bicine (pH=7.6), 0.5 mM DTT, 0.005% BSG and 0.002% Tween20, prepared on the day of use. […] DMSO (1 μL) was added to columns 11, 12, 23, 24, rows A-H for the maximum signal control, and SAH, a known product and inhibitor of PRC2 (1 μL) was added to columns 11, 12, 23, 24, rows I-P for the minimum signal control. A cocktail (40 μL) containing the wild-type PRC2 enzyme and H3K27me0 peptide or any of the Y641 mutant enzymes and H3K27me2 peptide was added by Multidrop Combi (Thermo). The compounds were allowed to incubate with PRC2 for 30 min at 25° C., then a cocktail (10 μL) containing a mixture of non-radioactive and ^3H-SAM was added to initiate the reaction (final volume=51 μL). […] The assays were stopped by the addition of non-radioactive SAM (10 μL) to a final concentration of 600 μM, which dilutes the ^3H-SAM to a level where its incorporation into the peptide substrate is no longer detectable. 50 of the reaction in the 384-well polypropylene plate was then transferred to a 384-well Flashplate and the biotinylated peptides were allowed to bind to the streptavidin surface for at least 1 h before being washed three times with 0.1% Tween20 in a Biotek ELx405 plate washer. The plates were then read in a PerkinElmer TopCount platereader to measure the quantity of ^3H-labeled peptide bound to the Flashplate surface, measured as disintegrations per minute (dpm) or alternatively, referred to as counts per minute (cpm).
Assay [2] has as its target wild-type EZH2 (PRC2 enzyme) (Homo sapiens (Human), UniProt Q15910). As to the kind of experiment: PRC2 enzyme assay on peptide substrate, wild-type EZH2 (H3K27me0 peptide, 3H-SAM Flashplate). The format is biochemical. The note with it: wild-type PRC2 4 nM, read-out: WT EZH2 IC50.
Protocol: as §1, §2

Structures can show the parent of a compound that is named as a salt. Bounds are passed on as bounds.

wild-type EZH2 (PRC2 enzyme), sequence (Q15910 whole entry): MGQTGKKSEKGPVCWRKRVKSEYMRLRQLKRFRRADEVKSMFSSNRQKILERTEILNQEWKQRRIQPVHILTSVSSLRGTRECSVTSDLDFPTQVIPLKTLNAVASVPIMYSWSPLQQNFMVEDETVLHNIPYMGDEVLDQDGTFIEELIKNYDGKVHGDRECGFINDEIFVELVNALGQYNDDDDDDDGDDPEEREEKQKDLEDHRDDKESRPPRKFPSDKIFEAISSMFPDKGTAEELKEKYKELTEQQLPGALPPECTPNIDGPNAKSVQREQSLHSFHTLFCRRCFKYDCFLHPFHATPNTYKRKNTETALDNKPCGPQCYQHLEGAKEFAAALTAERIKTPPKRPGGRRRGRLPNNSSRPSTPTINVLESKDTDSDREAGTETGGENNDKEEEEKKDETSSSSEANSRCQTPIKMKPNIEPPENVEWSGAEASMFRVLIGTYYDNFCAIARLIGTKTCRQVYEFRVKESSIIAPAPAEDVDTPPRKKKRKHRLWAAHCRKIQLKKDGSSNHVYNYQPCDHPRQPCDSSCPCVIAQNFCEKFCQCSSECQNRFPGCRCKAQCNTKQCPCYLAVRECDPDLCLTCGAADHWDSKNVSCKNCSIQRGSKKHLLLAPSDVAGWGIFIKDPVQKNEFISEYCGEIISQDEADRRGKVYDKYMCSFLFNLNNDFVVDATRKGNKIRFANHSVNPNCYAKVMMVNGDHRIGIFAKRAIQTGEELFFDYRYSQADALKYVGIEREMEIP
wild-type EZH2 (PRC2 enzyme), sequence (O75530 whole entry partner): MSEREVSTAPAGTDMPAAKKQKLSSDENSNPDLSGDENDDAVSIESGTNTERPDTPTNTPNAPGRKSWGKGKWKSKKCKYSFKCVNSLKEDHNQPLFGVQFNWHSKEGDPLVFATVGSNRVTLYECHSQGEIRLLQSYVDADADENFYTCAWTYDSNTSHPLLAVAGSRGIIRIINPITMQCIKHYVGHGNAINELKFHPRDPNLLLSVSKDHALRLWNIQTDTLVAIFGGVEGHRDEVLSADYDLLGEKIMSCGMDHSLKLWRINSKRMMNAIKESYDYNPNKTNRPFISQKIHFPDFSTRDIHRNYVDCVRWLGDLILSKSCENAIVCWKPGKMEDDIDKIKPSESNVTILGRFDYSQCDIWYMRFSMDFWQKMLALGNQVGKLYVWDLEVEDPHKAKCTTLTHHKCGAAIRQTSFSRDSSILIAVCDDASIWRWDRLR
wild-type EZH2 (PRC2 enzyme), sequence (Q15022 whole entry partner): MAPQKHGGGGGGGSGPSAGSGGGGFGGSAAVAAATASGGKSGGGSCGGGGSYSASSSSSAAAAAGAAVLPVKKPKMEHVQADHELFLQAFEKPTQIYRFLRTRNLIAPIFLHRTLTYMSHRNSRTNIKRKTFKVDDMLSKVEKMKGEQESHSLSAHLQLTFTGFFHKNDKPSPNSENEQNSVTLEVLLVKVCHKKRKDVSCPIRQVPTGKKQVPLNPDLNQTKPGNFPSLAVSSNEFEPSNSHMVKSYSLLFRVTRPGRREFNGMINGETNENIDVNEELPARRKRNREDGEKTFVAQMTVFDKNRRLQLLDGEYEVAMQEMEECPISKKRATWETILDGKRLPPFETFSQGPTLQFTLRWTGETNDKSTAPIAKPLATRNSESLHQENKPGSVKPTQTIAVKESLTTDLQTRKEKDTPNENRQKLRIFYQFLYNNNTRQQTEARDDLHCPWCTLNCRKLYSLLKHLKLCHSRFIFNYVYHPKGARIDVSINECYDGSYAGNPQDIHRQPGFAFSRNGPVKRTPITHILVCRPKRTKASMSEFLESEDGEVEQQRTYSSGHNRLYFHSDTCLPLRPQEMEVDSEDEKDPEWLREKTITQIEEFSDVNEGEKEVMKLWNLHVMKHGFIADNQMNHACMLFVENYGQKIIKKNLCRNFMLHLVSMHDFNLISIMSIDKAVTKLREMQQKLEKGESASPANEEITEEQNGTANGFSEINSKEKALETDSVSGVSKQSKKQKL
wild-type EZH2 (PRC2 enzyme), sequence (Q09028 whole entry partner): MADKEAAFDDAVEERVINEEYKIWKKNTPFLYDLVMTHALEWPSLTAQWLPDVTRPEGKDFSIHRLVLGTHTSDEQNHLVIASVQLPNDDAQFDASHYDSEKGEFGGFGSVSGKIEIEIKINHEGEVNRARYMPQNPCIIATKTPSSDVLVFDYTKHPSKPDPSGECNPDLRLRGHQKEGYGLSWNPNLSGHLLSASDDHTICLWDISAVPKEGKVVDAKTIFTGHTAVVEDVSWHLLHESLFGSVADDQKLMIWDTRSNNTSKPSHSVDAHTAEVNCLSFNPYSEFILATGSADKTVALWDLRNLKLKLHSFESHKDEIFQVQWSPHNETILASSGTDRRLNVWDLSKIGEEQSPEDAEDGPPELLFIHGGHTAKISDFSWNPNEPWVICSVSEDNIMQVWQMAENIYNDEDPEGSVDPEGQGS
EZH2 Y641F mutant (PRC2 enzyme), sequence (Q15910 whole entry Y641F): as the sequence (Q15910 whole entry) above, with Y641F counted along it
EZH2 Y641F mutant (PRC2 enzyme), sequence (O75530 whole entry partner): as the sequence (O75530 whole entry partner) above
EZH2 Y641F mutant (PRC2 enzyme), sequence (Q15022 whole entry partner): as the sequence (Q15022 whole entry partner) above
EZH2 Y641F mutant (PRC2 enzyme), sequence (Q09028 whole entry partner): as the sequence (Q09028 whole entry partner) above

As usually defined, the IC50 is the point on the concentration scale where inhibition reaches its midpoint. Take `CCO[C@@H]1COC[C@H]1N(CC)c1cc(Cl)cc(C(=O)NCc2c(C)[nH]n(C)c2=O)c1C` (relative stereo) [Compound 43, 5-chloro-N-((2,5-dimethyl-3-oxo-2,3-dihydro-1H-pyrazol-4-yl)methyl)-3-(((trans)-4-ethoxytetrahydrofuran-3-yl)(ethyl)amino)-2-methylbenzamide]: the IC50 in assay [1] was more than 50000 nM; in assay [2], more than 50 µM.

Take `CCN(c1cc(Cl)cc(C(=O)NCc2c(C)nn(C)c2OC)c1C)[C@@H]1COC[C@H]1OCCOC` (relative stereo) [Compound 44, 5-chloro-3-(ethyl((trans)-4-(2-methoxyethoxy)tetrahydrofuran-3-yl)amino)-N-((5-methoxy-1,3-dimethyl-1H-pyrazol-4-yl)methyl)-2-methylbenzamide]: the IC50 in assay [2] is more than 50 µM.

For `CCN(c1cc(Cl)cc(C(=O)NCc2c(C)[nH]n(C)c2=O)c1C)[C@@H]1COC[C@H]1OCCOC` (relative stereo) [Compound 45, 5-chloro-N-((2,5-dimethyl-3-oxo-2,3-dihydro-1H-pyrazol-4-yl)methyl)-3-(ethyl((trans)-4-(2-methoxyethoxy)tetrahydrofuran-3-yl)amino)-2-methylbenzamide], the IC50 is more than 50000 nM in assay [1] and more than 50 µM in assay [2].

Turning to `CCN(c1cc(Cl)cc(C(=O)NCc2c(C)nc3cc[nH]n3c2=O)c1C)[C@H]1CC[C@H](N(C)C)CC1` [Compound 8, 5-chloro-3-(((trans)-4-(dimethylamino)cyclohexyl)(ethyl)amino)-2-methyl-N-((5-methyl-7-oxo-1,7-dihydropyrazolo[1,5-a]pyrimidin-6-yl)methyl)benzamide], the IC50 in assay [1] is 5820 nM; in assay [2], 20 µM.

As for `CCN(c1cc(Cl)cc(C(=O)NCc2c(C)cc3nc(C)[nH]n3c2=O)c1C)[C@H]1CC[C@H](N(C)C)CC1` [Compound 9, 5-chloro-N-((2,7-dimethyl-5-oxo-3,5-dihydro-[1,2,4]triazolo[1,5-a]pyridin-6-yl)methyl)-3-(((trans)-4-(dimethylamino)cyclohexyl)(ethyl)amino)-2-methylbenzamide], the figures for the IC50 in assay [1] and in assay [2] were 11500 nM and 34.5 µM, respectively.

With `CCN(c1cc(Cl)cc(C(=O)NCc2cn(C)[nH]c2=O)c1C)[C@H]1CC[C@H](N(C)C)CC1` [Compound 31a, 5-chloro-3-(ethyl((trans)-4-(dimethylamino)cyclohexyl]amino)-2-methyl-N-((1-methyl-3-oxo-2,3-dihydro-1H-pyrazol-4-yl)methyl]benzamide formate], the IC50 worked out at 230 nM in assay [1] and 0.505 µM in assay [2].

With `CCN(c1cc(Cl)cc(C(=O)NCc2c(SC)n(C)[nH]c2=O)c1C)[C@H]1CC[C@H](N(C)C)CC1` [Compound 31b, 5-chloro-3-{ethyl[(trans)-4-(dimethylamino)cyclohexyl]amino}-2-methyl-N-{[1-methyl-5-(methylsulfanyl)-3-oxo-2,3-dihydro-1H-pyrazol-4-yl]methyl}benzamide Formate], the IC50 turned out to be 1070 nM in assay [1] and 1.24 µM in assay [2].

With `CCN(c1cc(Cl)cc(C(=O)NCc2c(C)[nH]n(C(C)C)c2=O)c1C)[C@H]1CC[C@H](N(C)C)CC1` [Compound 37, 5-chloro-3-(((trans)-4-(dimethylamino)cyclohexyl)(ethyl)amino)-N-((2-isopropyl-5-methyl-3-oxo-2,3-dihydro-1H-pyrazol-4-yl)methyl)-2-methylbenzamide], the IC50 in assay [1] was determined as 2660 nM; in assay [2] it was 15.6 µM.

Turning to `CCN(c1cc(Cl)cc(C(=O)NCc2c(C(C)C)[nH]n(C)c2=O)c1C)[C@H]1CC[C@H](N(C)C)CC1` [Compound 39, 5-chloro-3-(((trans)-4-(dimethylamino)cyclohexyl)(ethyl)amino)-N-((5-isopropyl-2-methyl-3-oxo-2,3-dihydro-1H-pyrazol-4-yl)methyl)-2-methylbenzamide], the IC50 was 2230 nM in assay [1] and 6.58 µM in assay [2].

Regarding `CCCCc1[nH]n(C)c(=O)c1CNC(=O)c1cc(Cl)cc(N(CC)[C@H]2CC[C@H](N(C)C)CC2)c1C` [Compound 40, N-((5-butyl-2-methyl-3-oxo-2,3-dihydro-1H-pyrazol-4-yl)methyl)-5-chloro-3-(((trans)-4-(dimethylamino)cyclohexyl)(ethyl)amino)-2-methylbenzamide], the IC50 in assay [1] stood at 166 nM; in assay [2], 0.689 µM.

For `CCN(c1cc(Cl)cc(C(=O)NCc2c(OC)nn3c(C)cc(C)nc23)c1C)[C@H]1CC[C@H](N(C)C)CC1` [Compound 48, 5-chloro-3-(((trans)-4-(dimethylamino)cyclohexyl)(ethyl)amino)-N-((2-methoxy-5,7-dimethylpyrazolo[1,5-a]pyrimidin-3-yl)methyl)-2-methylbenzamide], the results for the IC50 in assay [1] and in assay [2] were more than 50000 nM and more than 50 µM, respectively.

Take `CCN(c1cc(Cl)cc(C(=O)NCc2c(=O)[nH]n3c(C)cc(C)nc23)c1C)[C@H]1CC[C@H](N(C)C)CC1` [Compound 49, 5-chloro-N-((5,7-dimethyl-2-oxo-1,2-dihydropyrazolo[1,5-a]pyrimidin-3-yl)methyl)-3-(((trans)-4-(dimethylamino)cyclohexyl)(ethyl)amino)-2-methylbenzamide]: the IC50 in assay [1] came out at 5160 nM; in assay [2] it was 10.4 µM.

In the case of `CCN(c1cc(Cl)cc(C(=O)NCc2c(OC)nn3cccnc23)c1C)[C@H]1CC[C@H](N(C)C)CC1` [Compound 50, 5-chloro-3-(((trans)-4(dimethylamino)cyclohexyl)(ethyl)amino)-N-((2-methoxypyrazolo[1,5-a]pyrimidin-3-yl)methyl)-2-methylbenzamide], the results for the IC50 in assay [1] and in assay [2] were 2710 nM and 27.6 µM, respectively.

Take `CCN(c1cc(-c2ccc(CN3CCOCC3)cc2)cc(C(=O)NCc2c(OC)nn(C)c2C)c1C)[C@H]1CC[C@H](N(C)C)CC1` [Compound 53, 5-(((trans)-4-(dimethylamino)cyclohexyl) (ethyl)amino)-N-((3-methoxy-1,5-dimethyl-1H-pyrazol-4-yl)methyl)-4-methyl-4′-(morpholinomethyl)-[1,1′-biphenyl]-3-carboxamide]: the IC50 is 625 nM in assay [1] and 2.18 µM in assay [2].

As for `CCn1nc(OC)c(CNC(=O)c2cc(Cl)cc(N(CC)[C@H]3CC[C@H](N(C)CCOC)CC3)c2C)c1C` [Compound 64, 5-chloro-3-(ethyl ((trans)-4-((2-methoxyethyl)-(methyl)-amino)-cyclohexyl)amino)-N-((1-ethyl-3-methoxy-5-methyl-1H-pyrazol-4-yl)methyl)-2-methylbenzamide], the IC50 in assay [1] is 4480 nM; in assay [2], 17.5 µM.

`CCn1[nH]c(=O)c(CNC(=O)c2cc(Cl)cc(N(CC)[C@H]3CC[C@H](N(C)CCOC)CC3)c2C)c1C` [Compound 65, 5-chloro-3-(ethyl((trans)-4-((2-methoxyethyl)-(methyl)-amino)-cyclohexyl)-amino)-N-((1-ethyl-5-methyl-3-oxo-2,3-dihydro-1H-pyrazol-4-yl)methyl)-2-methylbenzamide]: the figures for the IC50 in assay [1] and in assay [2] were 442 nM and 1.14 µM, respectively.

With `CCN(c1cc(Cl)cc(C(=O)NCc2c(OC)nn(C)c2C)c1C)[C@H]1CC[C@H](N(C)Cc2cccnc2)CC1` [Compound 66, 5-chloro-3-(ethyl((trans)-4-(methyl(pyridin-3-ylmethyl)amino)cyclohexyl)amino)-N-((3-methoxy-1,5-dimethyl-1H-pyrazol-4-yl)methyl)-2-methylbenzamide], the IC50 in assay [1] was determined as 2340 nM; in assay [2], 10.2 µM.

With `CCN(c1cc(Cl)cc(C(=O)NCc2c(C)n(C)[nH]c2=O)c1C)[C@H]1CC[C@H](N(C)Cc2cccnc2)CC1` [Compound 67, 5-chloro-N-((1,5-dimethyl-3-oxo-2,3-dihydro-1H-pyrazol-4-yl)methyl)-3-(ethyl((trans)-4-(methyl(pyridin-3-ylmethyl)amino)cyclohexyl)amino)-2-methylbenzamide], the IC50 in assay [1] was 60 nM; in assay [2] it was 0.319 µM.

As for `CCN(c1cc(Cl)cc(C(=O)NCc2c(OC)nn(C)c2C)c1C)[C@H]1CC[C@H](N(C)Cc2cccc(OCCOC)c2)CC1` [Compound 68, 5-chloro-3-(ethyl((trans)-4-((3-(2-methoxyethoxy)benzyl)(methyl)amino)cyclohexyl)amino)-N-((3-methoxy-1,5-dimethyl-1H-pyrazol-4-yl)methyl)-2-methylbenzamide], the IC50 in assay [2] was determined as 2.59 µM.

Turning to `CCN(c1cc(Cl)cc(C(=O)NCc2c(C)n(C)[nH]c2=O)c1C)[C@H]1CC[C@H](N(C)Cc2cccc(OCCOC)c2)CC1` [Compound 69, 5-chloro-N-((1,5-dimethyl-3-oxo-2,3-dihydro-1H-pyrazol-4-yl)methyl)-3-(ethyl((trans)-4-((3-(2-methoxyethoxy)benzyl)(methyl)amino)cyclohexyl)amino)-2-methylbenzamide], the 50% inhibitory concentration (IC50) was 31 nM in assay [1] and 0.136 µM in assay [2].

In the case of `CCn1[nH]c(=O)c(CNC(=O)c2cc(Cl)cc(N(CC)[C@H]3CC[C@H](N(C)Cc4ccc(OC)cc4)CC3)c2C)c1C` [Compound 71, 5-chloro-3-(ethyl((trans)-4-((4-methoxybenzyl)-(methyl)-amino)-cyclohexyl)-amino)-N-((1-ethyl-5-methyl-3-oxo-2,3-dihydro-1H-pyrazol-4-yl)methyl)-2-methylbenzamide], the IC50 in assay [1] was 504 nM; in assay [2], 1.92 µM.

Turning to `CCN(c1cc(Cl)cc(C(=O)NCc2c(OC)nn(C)c2C)c1C)[C@H]1CC[C@H](N(C)C(C)c2cccnc2)CC1` (stereo partly drawn) [Compound 72, 5-chloro-3-(ethyl((trans)-4-(methyl(1-(pyridin-3-yl)ethyl)amino)cyclohexyl)amino)-N-((3-methoxy-1,5-dimethyl-1H-pyrazol-4-yl)methyl)-2-methylbenzamide], the IC50 is 5680 nM in assay [1] and more than 50 µM in assay [2].

Take `CCN(c1cc(Cl)cc(C(=O)NCc2c(C)n(C)[nH]c2=O)c1C)[C@H]1CC[C@H](N(C)C(C)c2cccnc2)CC1` (stereo partly drawn) [Compound 73, 5-chloro-N-((1,5-dimethyl-3-oxo-2,3-dihydro-1H-pyrazol-4-yl)methyl)-3-(ethyl((trans)-4-(methyl(1-(pyridin-3-yl)ethyl)amino)cyclohexyl)amino)-2-methylbenzamide]: the IC50 in assay [1] turned out to be 149 nM; in assay [2] it was 1.29 µM.

The record behind these values is patent US10150764B2, “Substituted benzene compounds” (Epizyme, Inc., priority 2013, dated 2018).
